Results published in patent publication US4473578A, “β-Lactam antibiotics and their use” (Beecham Group Limited, priority 1979, dated 1984).
Converted amounts (≈) assume the structure as drawn.

Tests used:
Experiment in all cases: Antibacterial effectiveness in agar
Format in all cases: cell-based
[1] = system: Enterbacter aerogenes NCTC 10006; conditions: in agar; Enterbacter aerogenes NCTC 10006; read-out: M.I.C.
Text: (§1) b. Antibacterial effectiveness of the compound of […]

[2] = system: Bacteroides fragilis BC16; conditions: in agar; Bacteroides fragilis BC16; read-out: M.I.C.
Text: as §1

Proteus morganii T361 = conditions: Morganella morganii; in agar; Proteus morganii T361; read-out: M.I.C.
Text: as §1

[3] = system: Streptococcus faecalis T1101; conditions: Enterococcus faecalis; in agar; Streptococcus faecalis T1101; read-out: M.I.C.
Text: as §1

Proteus vulgaris X = conditions: in agar; Proteus vulgaris X; read-out: M.I.C.
Text: as §1

[4] = system: Klebsiella aerogenes T219; conditions: in agar; Klebsiella aerogenes T219; read-out: M.I.C.
Text: as §1

[5] = system: Citrobacter freundii T221; conditions: in agar; Citrobacter freundii T221; read-out: M.I.C.
Text: as §1

[6] = system: Staphylococcus aureus ATCC 25923; conditions: ATCC25923; in agar; Staphylococcus aureus ATCC 25923; read-out: M.I.C.
Text: as §1

Proteus mirabilis T318 = conditions: in agar; Proteus mirabilis T318; read-out: M.I.C.
Text: as §1

Escherichia coli E96R+ = system: Escherichia coli E96R+
Text: as §1

[7] = system: Klebsiella aerogenes I281; conditions: in agar; Klebsiella aerogenes I281; read-out: M.I.C.
Text: as §1

[8] = system: Bacteroides fragilis VP1 8249; conditions: VP18249; in agar; Bacteroides fragilis VP1 8249; read-out: M.I.C.
Text: as §1

[9] = system: Klebsiella aerogenes R112; conditions: in agar; Klebsiella aerogenes R112; read-out: M.I.C.
Text: as §1

[10] = system: Pseudomonas aeruginosa W975; conditions: in agar; Pseudomonas aeruginosa W975; read-out: M.I.C.
Text: as §1

Escherichia coli Ba78R+ = conditions: in agar; Escherichia coli Ba78R+; read-out: M.I.C.
Text: as §1

Escherichia coli JT425C+ = conditions: in agar; Escherichia coli JT425C+; read-out: M.I.C.
Text: as §1

Escherichia coli JT1 = conditions: in agar; Escherichia coli JT1; read-out: M.I.C.
Text: as §1

Escherichia coli JT4R+ = system: Escherichia coli JT4R+
Text: as §1

Bacteroides fragilis B3 = conditions: in agar; Bacteroides fragilis B3; read-out: M.I.C.
Text: as §1

[11] = system: Streptococcus faecalis C90; conditions: Enterococcus faecalis; in agar; Streptococcus faecalis C90; read-out: M.I.C.
Text: as §1

Proteus rettgeri I = conditions: Providencia rettgeri; in agar; Proteus rettgeri I; read-out: M.I.C.
Text: as §1

[12] = system: Pseudomonas aeruginosa Dalgleish; conditions: in agar; Pseudomonas aeruginosa Dalgleish; read-out: M.I.C.
Text: as §1

[13] = system: Enterbacter aerogenes T660; conditions: in agar; Enterbacter aerogenes T660; read-out: M.I.C.
Text: as §1

[14] = system: Staphylococcus aureus T67+; conditions: in agar; Staphylococcus aureus T67+; read-out: M.I.C.
Text: as §1

[15] = system: Enterobacter cloacea NCTC 10005; conditions: NCTC10005; in agar; Enterobacter cloacea NCTC 10005; read-out: M.I.C.
Text: as §1

Citrobacter freundii W18 = conditions: in agar; Citrobacter freundii W18; read-out: M.I.C.
Text: as §1

Bacteroides fragilis BC4 = conditions: in agar; Bacteroides fragilis BC4; read-out: M.I.C.
Text: as §1

[16] = system: Staphylococcus aureus Smith; conditions: in agar; Staphylococcus aureus Smith; read-out: M.I.C.
Text: as §1

[17] = system: Proteus vulgaris NCTC 4395; conditions: NCTC4395; in agar; Proteus vulgaris NCTC 4395; read-out: M.I.C.
Text: as §1

Escherichia coli E8 = conditions: in agar; Escherichia coli E8; read-out: M.I.C.
Text: as §1

Proteus mirabilis 889 = conditions: in agar; Proteus mirabilis 889; read-out: M.I.C.
Text: as §1

Proteus rettgeri R110 = conditions: Providencia rettgeri; in agar; Proteus rettgeri R110; read-out: M.I.C.
Text: as §1

Escherichia coli 5 = conditions: in agar; Escherichia coli 5; read-out: M.I.C.
Text: as §1

Bacteroides fragilis WS1 = conditions: in agar; Bacteroides fragilis WS1; read-out: M.I.C.
Text: as §1

Escherichia coli JT414C+ = conditions: in agar; Escherichia coli JT414C+; read-out: M.I.C.
Text: as §1

[18] = system: Pseudomonas aeruginosa NCTC 10662; conditions: NCTC10662; in agar; Pseudomonas aeruginosa NCTC 10662; read-out: M.I.C.
Text: as §1

With `CC(=O)N/C=C/SC1=C(C(=O)O)N2C(=O)[C@@H]([C@H](C)OS(=O)(=O)O)[C@H]2C1` [MM 13902, reference compound] the MIC [1] was 0.4 µg/mL (≈ 1.02 µM), the MIC [2] was 1.6 µg/mL (≈ 4.08 µM) and the MIC (Proteus morganii T361) was 0.2 µg/mL (≈ 0.51 µM). For the same compound, the MIC [3] was 6.2 µg/mL (≈ 15.8 µM), the MIC (Proteus vulgaris X) was 0.4 µg/mL (≈ 1.02 µM) and the MIC [4] was ≤ 0.1 µg/mL. For the same compound, the MIC [5] was 6.2 µg/mL (≈ 15.8 µM), the MIC [6] was 1.6 µg/mL (≈ 4.08 µM) and the MIC (Proteus mirabilis T318) was ≤ 0.1 µg/mL. It also gave an MIC (Escherichia coli E96R+) of 0.2 µg/mL (≈ 0.51 µM), an MIC [7] of 0.2 µg/mL (≈ 0.51 µM) and an MIC [8] of 0.2 µg/mL (≈ 0.51 µM). For the same compound, the MIC [9] was 0.2 µg/mL (≈ 0.51 µM), the MIC [10] was 50 µg/mL (≈ 127 µM) and the MIC (Escherichia coli Ba78R+) was 0.8 µg/mL (≈ 2.04 µM). For the same compound, the MIC (Escherichia coli JT425C+) was 0.8 µg/mL (≈ 2.04 µM), the MIC (Escherichia coli JT1) was ≤ 0.1 µg/mL and the MIC (Escherichia coli JT4R+) was 1.6 µg/mL (≈ 4.08 µM). For the same compound, the MIC (Bacteroides fragilis B3) was 0.4 µg/mL (≈ 1.02 µM), the MIC [11] was 6.2 µg/mL (≈ 15.8 µM) and the MIC (Proteus rettgeri I) was 0.2 µg/mL (≈ 0.51 µM). The MIC [12] was 50 µg/mL (≈ 127 µM), the MIC [13] was 0.4 µg/mL (≈ 1.02 µM) and the MIC [14] was 0.8 µg/mL (≈ 2.04 µM). The MIC [15] was 12.5 µg/mL (≈ 31.9 µM), the MIC (Citrobacter freundii W18) was 6.2 µg/mL (≈ 15.8 µM) and the MIC (Bacteroides fragilis BC4) was 1.6 µg/mL (≈ 4.08 µM). The MIC [16] was 1.6 µg/mL (≈ 4.08 µM), the MIC [17] was 0.1 µg/mL (≈ 0.255 µM) and the MIC (Escherichia coli E8) was ≤ 0.1 µg/mL. For the same compound, the MIC (Proteus mirabilis 889) was 0.2 µg/mL (≈ 0.51 µM), the MIC (Proteus rettgeri R110) was 0.2 µg/mL (≈ 0.51 µM) and the MIC (Escherichia coli 5) was ≤ 0.1 µg/mL. The MIC (Bacteroides fragilis WS1) was 6.2 µg/mL (≈ 15.8 µM), the MIC (Escherichia coli JT414C+) was 0.4 µg/mL (≈ 1.02 µM) and the MIC [18] was 25 µg/mL (≈ 63.7 µM).
